Like-named read-outs stand apart in the source and are kept apart here. Positions of bridges follow the written chain, without caps; N, C: chain ends. Non-standard residues stand in square brackets, D forms with d. Residues, ends and D or L forms follow the SMILES beside them. Phe(4-COOH) = N[C@@H](Cc1ccc(C(=O)O)cc1)C(=O)O; 1Nal = N[C@@H](Cc1cccc2ccccc12)C(=O)O; 2Nal = N[C@@H](Cc1ccc2ccccc2c1)C(=O)O

Consider five compounds from patent US9340590B2 (priority 2011, dated 2016).

Common to all, as to assay: cell-based
For one assay, the target named is hNav1.3 (Homo sapiens, UniProt Q9NY46). To be noted: IonWorks Quattro, read-out: IWQ Use Nav1.3. Background: In patch-clamp work, channel activity is measured electrically.
Another assay addresses hNav1.7 (Homo sapiens, UniProt Q15858). Format: cell-based. To be noted: IonWorks Quattro, read-out: IWQ Use Nav1.7.
The target in the next assay is hNav1.5 (Homo sapiens, UniProt Q14524).

hNav1.3, sequence (Q9NY46 whole entry, looked up): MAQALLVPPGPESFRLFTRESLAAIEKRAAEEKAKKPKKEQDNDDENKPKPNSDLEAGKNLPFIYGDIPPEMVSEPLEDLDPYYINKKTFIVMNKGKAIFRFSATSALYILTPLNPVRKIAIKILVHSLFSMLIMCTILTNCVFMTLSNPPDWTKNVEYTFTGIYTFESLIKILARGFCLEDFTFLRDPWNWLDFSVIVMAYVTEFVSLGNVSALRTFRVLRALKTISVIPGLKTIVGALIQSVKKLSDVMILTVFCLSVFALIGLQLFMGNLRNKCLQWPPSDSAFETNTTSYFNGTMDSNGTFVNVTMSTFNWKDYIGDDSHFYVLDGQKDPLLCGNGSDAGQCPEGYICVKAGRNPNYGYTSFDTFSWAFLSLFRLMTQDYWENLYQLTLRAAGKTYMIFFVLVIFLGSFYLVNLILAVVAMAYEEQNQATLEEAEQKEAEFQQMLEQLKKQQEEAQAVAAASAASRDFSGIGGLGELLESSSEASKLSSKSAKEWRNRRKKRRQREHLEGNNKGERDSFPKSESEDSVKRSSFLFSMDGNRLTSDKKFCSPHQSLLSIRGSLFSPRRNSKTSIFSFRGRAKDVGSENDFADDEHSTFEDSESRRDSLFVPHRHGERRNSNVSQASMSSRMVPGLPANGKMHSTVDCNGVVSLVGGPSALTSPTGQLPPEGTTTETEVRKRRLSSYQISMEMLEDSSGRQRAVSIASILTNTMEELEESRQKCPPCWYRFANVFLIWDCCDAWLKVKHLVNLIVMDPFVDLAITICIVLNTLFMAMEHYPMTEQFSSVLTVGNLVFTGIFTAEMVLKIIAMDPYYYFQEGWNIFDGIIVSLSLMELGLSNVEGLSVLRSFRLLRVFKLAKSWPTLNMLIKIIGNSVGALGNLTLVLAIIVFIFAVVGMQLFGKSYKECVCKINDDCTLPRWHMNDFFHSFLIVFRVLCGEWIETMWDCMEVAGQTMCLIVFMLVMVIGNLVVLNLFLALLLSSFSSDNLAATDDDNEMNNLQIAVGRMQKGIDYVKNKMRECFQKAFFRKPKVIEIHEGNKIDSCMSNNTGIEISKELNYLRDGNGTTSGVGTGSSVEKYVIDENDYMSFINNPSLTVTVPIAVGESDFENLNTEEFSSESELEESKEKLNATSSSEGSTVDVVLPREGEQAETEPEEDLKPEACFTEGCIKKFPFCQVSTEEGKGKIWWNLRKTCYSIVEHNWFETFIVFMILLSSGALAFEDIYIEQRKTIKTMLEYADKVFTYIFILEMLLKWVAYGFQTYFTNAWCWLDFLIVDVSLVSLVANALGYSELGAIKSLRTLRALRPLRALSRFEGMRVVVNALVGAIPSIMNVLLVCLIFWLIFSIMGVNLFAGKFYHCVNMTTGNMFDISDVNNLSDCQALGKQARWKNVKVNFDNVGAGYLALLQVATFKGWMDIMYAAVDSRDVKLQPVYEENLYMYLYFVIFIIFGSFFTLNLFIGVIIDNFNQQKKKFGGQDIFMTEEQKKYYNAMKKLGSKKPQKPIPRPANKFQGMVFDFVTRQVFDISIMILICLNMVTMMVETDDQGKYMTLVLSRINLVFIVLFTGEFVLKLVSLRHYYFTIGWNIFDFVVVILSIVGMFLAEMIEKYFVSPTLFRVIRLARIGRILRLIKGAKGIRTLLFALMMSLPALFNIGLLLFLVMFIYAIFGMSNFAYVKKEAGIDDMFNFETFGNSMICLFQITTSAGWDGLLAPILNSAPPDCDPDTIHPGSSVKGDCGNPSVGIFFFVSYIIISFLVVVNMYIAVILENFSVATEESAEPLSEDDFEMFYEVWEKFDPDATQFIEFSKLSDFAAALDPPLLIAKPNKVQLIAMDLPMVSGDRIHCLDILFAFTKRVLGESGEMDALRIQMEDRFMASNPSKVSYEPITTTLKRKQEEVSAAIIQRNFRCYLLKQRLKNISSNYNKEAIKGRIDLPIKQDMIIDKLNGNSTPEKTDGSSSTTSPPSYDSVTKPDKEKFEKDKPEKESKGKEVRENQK
hNav1.7, sequence (Q15858 whole entry, looked up): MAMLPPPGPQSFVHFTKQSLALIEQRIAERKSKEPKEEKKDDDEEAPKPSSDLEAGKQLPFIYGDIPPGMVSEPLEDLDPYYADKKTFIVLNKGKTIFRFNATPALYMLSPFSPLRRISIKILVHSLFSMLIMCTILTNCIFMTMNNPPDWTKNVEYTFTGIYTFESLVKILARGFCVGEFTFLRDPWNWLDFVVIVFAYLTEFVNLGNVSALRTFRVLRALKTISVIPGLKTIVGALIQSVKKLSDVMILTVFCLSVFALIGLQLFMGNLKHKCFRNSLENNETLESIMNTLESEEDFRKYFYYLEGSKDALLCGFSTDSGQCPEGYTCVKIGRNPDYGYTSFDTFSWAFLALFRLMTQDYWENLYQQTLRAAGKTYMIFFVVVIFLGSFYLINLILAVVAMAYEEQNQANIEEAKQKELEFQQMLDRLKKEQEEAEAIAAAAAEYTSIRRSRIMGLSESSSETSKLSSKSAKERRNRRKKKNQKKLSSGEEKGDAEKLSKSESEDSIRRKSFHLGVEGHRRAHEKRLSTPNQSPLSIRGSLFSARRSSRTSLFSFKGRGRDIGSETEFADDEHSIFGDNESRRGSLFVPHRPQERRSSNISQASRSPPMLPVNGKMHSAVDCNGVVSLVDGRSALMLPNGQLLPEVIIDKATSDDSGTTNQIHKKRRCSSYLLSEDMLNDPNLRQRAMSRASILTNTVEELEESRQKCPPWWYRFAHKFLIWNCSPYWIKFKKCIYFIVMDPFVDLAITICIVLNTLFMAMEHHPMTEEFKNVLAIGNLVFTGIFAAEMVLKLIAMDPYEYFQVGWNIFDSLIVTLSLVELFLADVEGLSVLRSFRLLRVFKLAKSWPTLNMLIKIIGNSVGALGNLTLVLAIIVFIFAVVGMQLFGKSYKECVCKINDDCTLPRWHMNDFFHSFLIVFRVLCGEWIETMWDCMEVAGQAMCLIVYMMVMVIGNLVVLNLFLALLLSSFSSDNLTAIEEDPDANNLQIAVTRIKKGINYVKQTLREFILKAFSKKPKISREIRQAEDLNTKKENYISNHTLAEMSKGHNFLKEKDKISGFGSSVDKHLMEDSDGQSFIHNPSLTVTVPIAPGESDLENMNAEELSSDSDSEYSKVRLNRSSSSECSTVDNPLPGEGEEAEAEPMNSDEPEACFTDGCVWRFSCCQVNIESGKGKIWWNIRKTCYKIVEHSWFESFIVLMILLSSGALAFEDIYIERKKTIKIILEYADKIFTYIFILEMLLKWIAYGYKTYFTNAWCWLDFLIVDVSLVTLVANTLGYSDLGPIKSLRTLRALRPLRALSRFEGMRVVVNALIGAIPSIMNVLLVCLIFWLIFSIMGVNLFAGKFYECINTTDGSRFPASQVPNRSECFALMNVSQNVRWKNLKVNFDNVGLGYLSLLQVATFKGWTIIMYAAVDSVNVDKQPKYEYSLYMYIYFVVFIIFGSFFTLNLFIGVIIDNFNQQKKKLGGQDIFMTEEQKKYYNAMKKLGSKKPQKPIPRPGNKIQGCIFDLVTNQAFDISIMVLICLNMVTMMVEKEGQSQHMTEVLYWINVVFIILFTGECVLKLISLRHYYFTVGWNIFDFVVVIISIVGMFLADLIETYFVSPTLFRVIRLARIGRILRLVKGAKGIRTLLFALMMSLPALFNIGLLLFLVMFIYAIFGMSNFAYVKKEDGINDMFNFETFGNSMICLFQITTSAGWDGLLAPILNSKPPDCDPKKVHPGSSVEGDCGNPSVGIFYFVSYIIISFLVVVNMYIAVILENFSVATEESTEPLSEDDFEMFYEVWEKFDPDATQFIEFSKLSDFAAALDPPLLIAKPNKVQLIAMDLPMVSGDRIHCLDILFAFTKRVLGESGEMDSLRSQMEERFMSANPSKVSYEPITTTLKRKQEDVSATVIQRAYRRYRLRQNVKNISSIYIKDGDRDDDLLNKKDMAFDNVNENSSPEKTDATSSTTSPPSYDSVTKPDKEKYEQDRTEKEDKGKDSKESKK

With `CC[C@H](C)[C@@H]1NC(=O)[C@@H]2CSSC[C@@H]3NC(=O)[C@H](C(C)C)NC(=O)[C@H](CC(C)C)NC(=O)[C@H](CC(N)=O)NC(=O)[C@@H]4CCCN4C(=O)[C@H](CCCNC(=N)N)NC(=O)[C@H](CSSC[C@H](NC(=O)[C@@H](N)CC(=O)O)C(=O)N[C@@H](CC(C)C)C(=O)NCC(=O)N[C@@H](C)C(=O)N[C@@H](CCSC)C(=O)N[C@@H](CCCNC(=N)N)C(=O)N[C@@H](CCCCN)C(=O)N2)NC(=O)[C@H](CSSC[C@@H](C(=O)N[C@@H](CCCCN)C(=O)N[C@@H](Cc2ccc(O)cc2)C(=O)N[C@@H](Cc2cccc4ccccc24)C(=O)N[C@@H](Cc2ccccc2)C(N)=O)NC(=O)[C@H](Cc2c[nH]c4ccccc24)NC(=O)[C@H](CCCCN)NC(=O)[C@H](Cc2c[nH]cn2)NC(=O)[C@H]([C@@H](C)O)NC(=O)[C@H](CCCNC(=N)N)NC(=O)[C@H](CO)NC3=O)NC(=O)[C@H](CCCCN)NC(=O)[C@H](CC(=O)O)NC(=O)[C@H](CC(N)=O)NC(=O)[C@H](CC(=O)O)NC(=O)[C@@H]2CCCN2C1=O` [compound 258] (H-DCLGAMRKCIPDNDKCCRPNLVCSRTHKWCKY[1Nal]F-NH2; disulfide 2-17, 9-23, 16-30), the IC50 at hNav1.3 (use-dependent block, hNav1.3) was found to be 0.8 µM; at hNav1.7 (use-dependent block, hNav1.7), 0.38 µM; against hNav1.5 (IWQ Use Nav1.5 (μM)), 5 µM.
Take `CC[C@H](C)[C@@H]1NC(=O)[C@@H]2CSSC[C@@H]3NC(=O)[C@H](C(C)C)NC(=O)[C@H](CC(C)C)NC(=O)[C@H](CC(N)=O)NC(=O)[C@@H]4CCCN4C(=O)[C@H](CCCNC(=N)N)NC(=O)[C@H](CSSC[C@H](NC(=O)[C@@H](N)CC(=O)O)C(=O)N[C@@H](CC(C)C)C(=O)NCC(=O)N[C@@H](Cc4ccccc4)C(=O)N[C@@H](CCSC)C(=O)N[C@@H](CCCNC(=N)N)C(=O)N[C@@H](CCCCN)C(=O)N2)NC(=O)[C@H](CSSC[C@@H](C(=O)N[C@@H](CCCCN)C(=O)N[C@@H](Cc2ccc(O)cc2)C(=O)N[C@@H](CCSC)C(=O)N[C@@H](Cc2ccccc2)C(N)=O)NC(=O)[C@H](Cc2c[nH]c4ccccc24)NC(=O)[C@H](CCCCN)NC(=O)[C@H](Cc2c[nH]cn2)NC(=O)[C@H]([C@@H](C)O)NC(=O)[C@H](CCCNC(=N)N)NC(=O)[C@H](CO)NC3=O)NC(=O)[C@H](CCCCN)NC(=O)[C@H](CC(=O)O)NC(=O)[C@H](CC(N)=O)NC(=O)[C@H](CC(=O)O)NC(=O)[C@@H]2CCCN2C1=O` [compound 391] (H-DCLGFMRKCIPDNDKCCRPNLVCSRTHKWCKYMF-NH2; disulfide 2-17, 9-23, 16-30): the IC50 on hNav1.3 (Table 26, use, […]) turned out to be 0.08 µM; at hNav1.7 (Table 26, use, […]), 0.07 µM; on hNav1.5 (Table 26, IonWorks Quattro, use, […], read-out: IWQ Use Nav1.5), 15.1 µM.
With `CC[C@H](C)[C@@H]1NC(=O)[C@@H]2CSSC[C@@H]3NC(=O)[C@H](C(C)C)NC(=O)[C@H](CC(C)C)NC(=O)[C@H](CC(N)=O)NC(=O)[C@@H]4CCCN4C(=O)[C@H](CCCNC(=N)N)NC(=O)[C@H](CSSC[C@H](NC(=O)[C@@H](N)CC(=O)O)C(=O)N[C@@H](CC(C)C)C(=O)NCC(=O)N[C@@H](Cc4ccccc4)C(=O)N[C@@H](CCSC)C(=O)N[C@@H](CCCNC(=N)N)C(=O)N[C@@H](CCCCN)C(=O)N2)NC(=O)[C@H](CSSC[C@@H](C(=O)N[C@@H](CCCCN)C(=O)N[C@@H](Cc2ccc(O)cc2)C(=O)N[C@H](C(=O)N[C@@H](Cc2ccccc2)C(N)=O)C(C)C)NC(=O)[C@H](Cc2ccc4ccccc4c2)NC(=O)[C@H](CCCCN)NC(=O)[C@H](Cc2c[nH]cn2)NC(=O)[C@H]([C@@H](C)O)NC(=O)[C@H](CCCNC(=N)N)NC(=O)[C@H](CO)NC3=O)NC(=O)[C@H](CCCCN)NC(=O)[C@H](CC(=O)O)NC(=O)[C@H](CC(N)=O)NC(=O)[C@H](CC(=O)O)NC(=O)[C@@H]2CCCN2C1=O` [SEQ ID NO: 129, [2-Nal29]GpTx-1] (H-DCLGFMRKCIPDNDKCCRPNLVCSRTHK[2Nal]CKYVF-NH2; disulfide 2-17, 9-23, 16-30), the IC50 came out at 0.73 µM at hNav1.3 (Table 24, use, […]); 0.58 µM at hNav1.7 (Table 24, use, […]); 11.7 µM at hNav1.5 (Table 24, IonWorks Quattro, use, […], read-out: IWQ Use Nav1.5).
For the compound `CC[C@H](C)[C@@H]1NC(=O)[C@@H]2CSSC[C@@H]3NC(=O)[C@H](C(C)C)NC(=O)[C@H](CC(C)C)NC(=O)[C@H](CC(N)=O)NC(=O)[C@@H]4CCCN4C(=O)[C@H](CCCNC(=N)N)NC(=O)[C@H](CSSC[C@H](NC(=O)[C@@H](N)CC(=O)O)C(=O)N[C@@H](CC(C)C)C(=O)NCC(=O)N[C@@H](Cc4ccccc4)C(=O)N[C@@H](CCSC)C(=O)N[C@@H](CCCNC(=N)N)C(=O)N[C@@H](CCCCN)C(=O)N2)NC(=O)[C@H](CSSC[C@@H](C(=O)N[C@@H](CCCCN)C(=O)N[C@@H](Cc2ccc(O)cc2)C(=O)N[C@H](C(=O)N[C@@H](Cc2ccccc2)C(N)=O)C(C)C)NC(=O)[C@H](Cc2c[nH]c4ccccc24)NC(=O)[C@H](CCCCN)NC(=O)[C@H](Cc2ccc(C(=O)O)cc2)NC(=O)[C@H]([C@@H](C)O)NC(=O)[C@H](CCCNC(=N)N)NC(=O)[C@H](CO)NC3=O)NC(=O)[C@H](CCCCN)NC(=O)[C@H](CC(=O)O)NC(=O)[C@H](CC(N)=O)NC(=O)[C@H](CC(=O)O)NC(=O)[C@@H]2CCCN2C1=O` [compound 351] (H-DCLGFMRKCIPDNDKCCRPNLVCSRT[Phe(4-COOH)]KWCKYVF-NH2; disulfide 2-17, 9-23, 16-30), the IC50 amounted to 8.41 µM on hNav1.3 (Table 23, use, […]); 15.4 µM at hNav1.7 (Table 23, use, […]); 6.65 µM on hNav1.5 (Table 23, IonWorks Quattro, use, […], read-out: IWQ Use Nav1.5).
On to `CC[C@H](C)[C@@H]1NC(=O)[C@@H]2CSSC[C@@H]3NC(=O)[C@H](C(C)C)NC(=O)[C@H](CC(C)C)NC(=O)[C@H](CC(N)=O)NC(=O)[C@@H]4CCCN4C(=O)[C@H](CCCNC(=N)N)NC(=O)[C@H](CSSC[C@H](NC(=O)[C@@H](N)CC(=O)O)C(=O)N[C@@H](CC(C)C)C(=O)NCC(=O)N[C@@H](C)C(=O)N[C@@H](CC(C)C)C(=O)N[C@@H](CCCNC(=N)N)C(=O)N[C@@H](CCCCN)C(=O)N2)NC(=O)[C@H](CSSC[C@@H](C(=O)N[C@@H](CCCCN)C(=O)N[C@@H](Cc2ccc(O)cc2)C(=O)N[C@H](C(=O)N[C@@H](Cc2ccccc2)C(N)=O)C(C)C)NC(=O)[C@H](Cc2c[nH]c4ccccc24)NC(=O)[C@H](CCCCN)NC(=O)[C@H](Cc2c[nH]cn2)NC(=O)[C@H]([C@@H](C)O)NC(=O)[C@H](CCCNC(=N)N)NC(=O)[C@H](CO)NC3=O)NC(=O)[C@H](CCCCN)NC(=O)[C@H](CC(=O)O)NC(=O)[C@H](CC(N)=O)NC(=O)[C@H](CCC(=O)O)NC(=O)[C@@H]2CCCN2C1=O` [compound 726], for which the IC50 on hNav1.3 (use-dependent block, hNav1.3) is 0.58 µM; at hNav1.7 (use-dependent block, hNav1.7), 0.35 µM; on hNav1.5 (IonWorks Quattro, use-dependent block, hNav1.5, read-out: IWQ Use Nav1.5) it was greater than 50 µM.
